From patent publication US20230278972A1, “SUBSTITUTED HALOALKYL SULFONANILIDE HERBICIDES” (FMC Corporation, priority 2020, published 2023)

Columns and labels:
Format in all cases: in vivo
[1] = tested on: Pigweed, Palmer (palmer amaranth, palmer pigweed, Amaranthus palmeri); experiment: Test A1 preemergence, Pigweed, Palmer
Summary of the method: (§1)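 Plants grown in pots of loam/sand mix; preemergence = soil-directed spray on seeded pots, postemergence = spray at 1–2 leaves, height 2–10 cm; test chemicals formulated in non-phytotoxic solvent with surfactant.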

[2] = tested on: Ryegrass, Italian (Italian ryegrass, Lolium multiflorum); experiment: Test A1 preemergence, Ryegrass, Italian
Summary of the method: as §1

[3] = tested on: wheat (Triticum aestivum); experiment: Test A1 postemergence, wheat; conditions: Postemergence
Summary of the method: (§2)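 Test compounds were formulated in a non-phytotoxic solvent mixture containing a surfactant. For preemergence, seeds sown in a loam soil–sand blend received a directed soil spray. For postemergence, potted plants in the same soil, 2 to 10 cm tall at the one- to two-leaf stage, were sprayed.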

[4] = tested on: galium (catchweed bedstraw, Galium aparine); experiment: Test A1 postemergence, galium; conditions: Postemergence
Summary of the method: as §2

[5] = tested on: ducksalad (Heteranthera limosa); experiment: Test B1 flooded paddy test, ducksalad; conditions: 250 g ai/ha, Flood, applied to paddy water, 2-leaf stage, visually evaluated after 10 to 14 days
Source text: A dash (-) response means no test result.

corn (Zea mays) = experiment: Test A1 postemergence, corn; conditions: Postemergence
Summary of the method: as §1

soybean (Glycine max) = experiment: Test A1 preemergence, soybean
Summary of the method: as §1

[6] = 31 g ai/ha, 0 to 100 scale (0 no effect, 100 complete control)
[7] = 125 g ai/ha, 0 to 100 scale, 0 no effect, 100 complete control
[8] = 31 g ai/ha, 0 to 100 scale (0 no effect, 100 complete control), 10 days

Row | Compound | Plant response rating, Pigweed, Palmer [1, 6] | Plant response rating, Pigweed, Palmer [1, 7] | Plant response rating, Ryegrass, Italian [2, 6] | Plant response rating, Ryegrass, Italian [2, 7] | Plant response rating, Wheat [3, 8] | Plant response rating, Wheat ([3]; 125 g ai/ha, 0 to 100 scale) | Plant response rating, Galium [4, 8] | Plant response rating, Galium ([4]; 125 g ai/ha, 0 to 100 scale) | Plant response rating, Ducksalad (0 to 100 scale, 0 is no effect, 100 is complete control) [5] | Plant response rating, Corn (corn (Zea mays); [8]) | Plant response rating, Corn (corn (Zea mays); 125 g ai/ha, 0 to 100 scale) | Plant response rating, Soybean (soybean (Glycine max); [6]) | Plant response rating, Soybean (soybean (Glycine max); [7])
1 | CCC1ON=C(c2cc(N(C(=O)OCC(C)C)S(=O)(=O)C(F)(F)F)c(C)cc2C)C1CC (stereo not shown) [Compound 345] | 80 | 100 | 30 | 80 | 30 | 60 | 80 | 100 | 30 | 0 | 50 | 0 | 0
2 | Cc1cc(C)c(N(COC(=O)C(C)(C)C)S(=O)(=O)C(F)(F)F)cc1C(=O)N1CCC(c2ccccc2)CC1 [Compound 364] | 0 | 0 | 0 | 0 | 0 | 0 | 0 | 30 | 0 | 0 | 0 | 0 | 0
3 | CCOC(=O)N(c1cc(C(=O)N2CCC(F)(F)CC2)c(C)cc1C)S(=O)(=O)C(F)(F)F [Compound 351] | 80 | 90 | 40 | 90 | 0 | 60 | 80 | 100 | 70 | 0 | 70 | 20 | 30
4 | Cc1c(C(=O)N2CCC(F)(F)CC2)cc(N(COC(=O)C(C)(C)C)S(=O)(=O)C(F)(F)F)c(C)c1C [Compound 360] | 0 | 40 | 0 | 30 | 0 | 0 | 50 | 100 | 65 | 0 | 0 | 0 | 0
5 | CCOC(=O)N(c1cc(C(=O)N2CCOCC2)c(C)cc1C)S(=O)(=O)C(F)(F)F [Compound 363] | 90 | 100 | 80 | 100 | 40 | 60 | 60 | 90 | 70 | 30 | 60 | 10 | 30
6 | Cc1cc(C)c(N(COC(=O)C(C)(C)C)S(=O)(=O)C(F)(F)F)cc1C1=NOC2CCCCCC12 (single isomer, unassigned) [Compound 294] | 10 | 30 | 40 | 90 | 0 | 20 | 60 | 70 | 70 | 10 | 20 | 0 | 0
7 | Cc1c(NS(=O)(=O)C(F)(F)F)cc(C(=O)N2CCOCC2)c(C)c1C [Compound 289, 1,1,1-Trifluoro-N-[2,3,4-trimethyl-5-(4-morpholinylcarbonyl)phenyl]methanesulfonamide] | 90 | 100 | 20 | 70 | 20 | 50 | 60 | 80 | 95 | 0 | 20 | 20 | 60
8 | Cc1cc(Br)c(NS(=O)(=O)C(F)(F)F)cc1C1=NOC2(CCCC2)C1 [Compound 309] | 40 | 40 | 60 | 90 | 0 | 40 | 40 | 80 | 60 | 0 | 30 | 0 | 0
9 | Cc1c(C2=NO[C@@H]3CCC[C@H]23)cc(N(COC(=O)C(C)(C)C)S(=O)(=O)C(F)(F)F)c(C)c1C [Compound 336, [[(Trifluoromethyl)sulfonyl][2,3,4-trimethyl-5-[(3aR,6aR)-3a,5,6,6a-tetrahydro-4H-cyclopent[d]isoxazol-3-yl]phenyl]amino]methyl 2,2-dimethylpropanoate] | 60 | 100 | 30 | 30 | 0 | 0 | 60 | 100 | 75 | 0 | 0 | 0 | 0
10 | Cc1cc(C2CC2)c(C2=NOC3CCCC23)cc1NS(=O)(=O)C(F)(F)F (stereo not shown) [Compound 307] | 30 | 80 | 50 | 100 | 30 | 40 | 40 | 60 | 70 | 0 | 0 | 0 | 30
11 | CCC1ON=C(c2cc(N(COC(=O)C(C)(C)C)S(=O)(=O)C(F)(F)F)c(C)cc2C)C1CC (stereo not shown) [Compound 344] | 50 | 80 | 20 | 40 | 40 | 70 | 70 | 100 | 90 | 20 | 50 | 50 | 50
12 | Cc1cc(C)c(N(C(=O)OC(C)C)S(=O)(=O)C(F)(F)F)cc1C1=NOC2CCCC12 (stereo not shown) [Compound 295] | 0 | 80 | 40 | 70 | 20 | 70 | 50 | 60 | 0 | 0 | 0 | 0 | 0
13 | Cc1cc(C)c(N(COC(=O)C(C)(C)C)S(=O)(=O)C(F)(F)F)cc1C1=NOC2(C)CCCC12 (stereo not shown) [Compound 341] | 0 | 20 | 0 | 40 | 0 | 70 | 50 | 80 | 45 | 0 | 0 | 0 | 0
14 | Cc1cc(C)c(N(COC(=O)C(C)(C)C)S(=O)(=O)C(F)(F)F)cc1C(=O)N1CCC(F)(F)CC1 [Compound 350] | 20 | 60 | 30 | 30 | 0 | 10 | 70 | 90 | 80 | 0 | 0 | 0 | 0
15 | Cc1cc(C(F)(F)F)c(C2=NOC3CCCC23)cc1NS(=O)(=O)C(F)(F)F (stereo not shown) [Compound 306] | 50 | 100 | 0 | 80 | 0 | 20 | 60 | 80 | 85 | 0 | 0 | 0 | 0
16 | CCC1ON=C(c2cc(NS(=O)(=O)C(F)(F)F)c(C)cc2C)C1CC (stereo not shown) [Compound 346] | 100 | 100 | 50 | 90 | 30 | 70 | 70 | 100 | 65 | 20 | 60 | 50 | 50
